Laboratory results taken from article PMC12214158, “Structure–activity relationship of ^18F-labeled PD-L1-targeting small molecule ligands: impact of radiolabeling strategy on affinity and in vivo performance” (EJNMMI Radiopharmacy and Chemistry, 2025).

Legend:
human PD-L1 = molecular target: T1, human PD-L1 (Homo sapiens, UniProt Q9NZQ7); assay: Competition binding assay against [^64Cu]Cu-1 on PC3 PD-L1 overexpressing cells; conditions: against [^64Cu]Cu-1 (30 nM), 14 dilutions 1 µM–120 pM, n = 2 from triplicates, read-out: Ki (inhibitory constant from competition binding assay)
T1 construct: expressed in transfected cells; host or cells: PC3 cells (human prostate carcinoma) transduced to overexpress human PD-L1
T1 sequence (Q9NZQ7 19-290): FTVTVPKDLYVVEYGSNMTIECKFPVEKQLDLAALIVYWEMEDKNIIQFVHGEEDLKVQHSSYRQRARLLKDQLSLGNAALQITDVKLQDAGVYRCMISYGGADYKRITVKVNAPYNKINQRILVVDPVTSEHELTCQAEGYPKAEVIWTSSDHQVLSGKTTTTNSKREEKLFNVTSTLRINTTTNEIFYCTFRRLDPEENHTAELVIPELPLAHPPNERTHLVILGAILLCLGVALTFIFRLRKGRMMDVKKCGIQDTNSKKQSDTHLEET
Description: Prior to competition binding experiments, cells were detached with 0.05% Trypsin–EDTA (Gibco, USA), trypsinized and counted (CASY1 cell counter, Schaerfe System, Reutlingen, Germany). Cells were then diluted in medium to ~ 320,000 cells/mL and seeded to 48 well plates (Falcon Multiwell #353078, ThermoFisher, Karlsruhe, Germany) for at least one day.
For the determination of inhibitory constant (Ki), competition binding experiments were conducted in a minimum of two independent experiments, with each data point formed from triplicates. For this purpose, all described compounds competed with a previously reported biphenyl-based PD-L1 small molecule radioligand (Krutzek et al. [2023b]).
Human PD-L1 transduced PC3 cells were grown under conditions described above. For the experiments, plates were allowed to reach room temperature followed by cooling on ice (each 15 min). 200 µL of assay buffer (PBS) replaced the culture. For each compound, total binding (TB) of the radioligand was determined, along with […] of BMS-1166 (synthesized according to reference (Guzik et al. [2017]) (dissolved in DMSO, resulting in 0.03% v/v) for estimation of nonspecific binding (NSB).
Incubation for 90 min followed, wells were then washed with ice-cold assay buffer (3 washes) and cells subjected to lysis (500 µL of 0.1 M NaOH + 1% SDS). The radioactivity of 400 µL lysate was assessed via a gamma counter (Perkin Elmer Wizard 1480). Binding to polystyrene was determined on an extra plate without any cells under identical conditions. Activity and therefore concentration of the radioligand stock solution was confirmed via 50 µL samples. Data was corrected for radioactive decay to a reference time (end of radiolabeling). The protein content of lysates from a control plate (seeded from the same cell suspension, incubated under identical conditions) was quantified using a BCA assay, and the mean value (µg/mL) was employed for this specific dataset. Via mean protein content and molar activity, final values (pmol/mg protein) were computed from the CPM measurements. Ki was fitted via a One site model (GraphPad Prism 10), using the previously determined KD for the radiolabeled compound and the actual concentration of the radioligand.

[1] = test system: NMRI-nude mice bearing PC3 PD-L1 and PC3 mock tumors; assay: Small animal PET in mice bearing PC3 PD-L1 and PC3 mock tumors; assay type: in vivo; conditions: for SUVmax PC3 PD-L1 tumor / SUVmax PC3 mock tumor / Uptake (SUVmean) Bone (spine) / Uptake (SUVmean) Gall bladder / Uptake (SUVmean) Heart / Uptake (SUVmean) Liver / Uptake (SUVmean) PC3 PD-L1 tumor / Uptake (SUVmean) PC3 mock tumor / Uptake (SUVmean) Small intestine: 1–2 h p.i.; for Uptake (SUVmean) Bone (spine) / Uptake (SUVmean) Gall bladder / Uptake (SUVmean) Heart / Uptake (SUVmean) Liver / Uptake (SUVmean) PC3 PD-L1 tumor / Uptake (SUVmean) PC3 mock tumor / Uptake (SUVmean) Small intestine: mean; for transition from liver and gall bladder into the intestine: time-activity curves
Description: Male athymic NMRI-nude mice (Rj:NMRI-Foxn1nu, Charels River, Germany) aged 8 to 16 weeks were used to investigate pharmacokinetics and tumor uptake. For subcutaneous injection of cells, general anesthesia was induced with ~ 10% desflurane (Baxter, Deerfield, IL, USA) in 30 vol% oxygen + air at controlled 37 °C. Mice were injected with 3–5 × 10^6 PC3 PD-L1 and PC3 mock cells (in 50 µL PBS + 50 µL Matrigel, Corning, Glendale, CA, USA) into the right and left thigh, respectively. Tumor growth was monitored (3 times per week) using calipers, and animals enrolled in PET scans once tumors reached 7 mm.
Under general anesthesia, PET and X-ray computed tomography (CT) scans were conducted using a small animal PET/CT scanner (nanoScan PET/CT, Mediso, Budapest, Hungary), with four animals imaged simultaneously. CT images were used for attenuation correction and anatomical referencing.
The radiotracer candidates were diluted in 200–300 µL sterile 0.9% NaCl (and up to 2% EtOH, pH 6–7) and intravenously delivered over 30 s through a lateral tail vein catheter. PET acquisition (2 h p.i.) was started simultaneously with the administration. Injected activities were between 5 and 12 MBq (with molar activities 5–18 GBq/µmol). If animals were subjected to an additional scan later, the minimum time in between was > 3 days to allow decay and full metabolization.
The acquired three-dimensional list mode data were sorted and binned within a 400–600 keV energy window, forming 35 time frames (15 × 10 s, 5 × 30 s, 5 × 60 s, 4 × 300 s, 3 × 600 s, 3 × 1200 s). Reconstruction was performed with Mediso’s Tera-Tomo™ 3D algorithm, with a voxel size of 0.4 mm and corrections for decay, scatter, and attenuation. The images were subjected to post-processing and analysis using Rover software (ABX GmbH, Radeberg, Germany), and are shown as maximum intensity projections (MIPs) at the specified timepoint and scaling.
Three-dimensional volumes of interest were defined using fixed thresholding at 35–40% of the maximum measured intensity. Standardized uptake values (SUV = [MBq detected activity/mL tissue]/[MBq injected activity/g body weight], in mL/g) were then calculated within the selected volumes of interest, e.g. PD-L1 and mock tumors, as well as other relevant and metabolizing organs.

[2] = Proteolytic stability in human serum, radio-HPLC; assay type: in vitro ADME; conditions: 37 °C, all time points up to 4 h
Description: With both ^18F-ligands in hand, distribution coefficients (log D7.4) were determined using the shake flask method with n-octanol and PBS. The introduction of three hydrophilizing units led to log D7.4 values of − 2.54 ± 0.02 for [^18F]F-2 and − 2.68 ± 0.08 for [^18F]F-3, which indicates moderate hydrophilicity. Subsequently, proteolytic stability was investigated (Supplementary Fig. S68 and S69), by incubating in human serum at 37 °C for up to 4 h. Before incubation (0 h) and 0.5, 1, 2 and 4 h after incubation, an aliquot was taken, and serum proteins were precipitated. Analysis of radiotracers was performed with radio-HPLC, showing the intact radiotracers (0 h) at 7.0 ([^18F]F-2) and 7.7 min ([^18F]F-3). At all time points, radiotracers remained intact up to 99%.
Subsequently, proteolytic stability was investigated (Supplementary Fig. S70 and S71), by incubating in human serum at 37 °C for up to 4 h. Before incubation (0 h) and 0.5, 1, 2 and 4 h after incubation, an aliquot was taken, and serum proteins were precipitated. Analysis of radiotracers was performed with radio-HPLC, showing the intact radiotracers (0 h) at 7.9 (Al[^18F]F-36) and 8.1 min (Al[^18F]F-37). After 4 h, both radiotracers remained intact up to 91% and 92%, respectively.
For proteolytic stability studies, a solution of the radiolabeled compound was diluted with human serum in a ratio of 1:10. […]

PC3 PD-L1 cells = molecular target: T2, PC3 PD-L1 cells (Homo sapiens, UniProt Q9NZQ7); assay: Real-time radioligand binding (LigandTracer) to PC3 PD-L1 cells; conditions: room temperature
T2 construct: expressed in transfected cells; host or cells: PC3 cells (human prostate carcinoma) transduced to overexpress human PD-L1
T2 sequence (Q9NZQ7 19-290): as above
Description: The LigandTracer system (Ridgeview Instruments AB, Uppsala, Sweden) allows assessing the binding kinetics (association rate constant ka and dissociation rate constant kd) and therefore dissociation constant (KD) of radiolabeled compounds. For that purpose, target-positive PC3 PD-L1 cells are seeded to a quadrant of a petri dish (Thermo Scientific Nunclon Delta #150350). In our initial tests, 1.2x10^6 cells were seeded one day prior to the experiment.
The petri dish is then placed in the instrument, the culture medium removed and replaced with 3 mL CO2-independent medium (Gibco #18045088, ThermoFisher Germany). In the LigandTracer system, the dish rotates on an inclined base, with cells in medium (3 mL) located on one side (target), while no cells (background) are located on the other side. Radioactivity (counts per second) is then constantly measured for 30 seconds on either side. This allows continuous measurements of two (or more) alternating parts of the dish for bound radioactivity, with target – background indicating binding over time.
All experiments were performed at room temperature. Association of compounds was observed following incubation with two increasing concentrations of the tracer. The tracer-containing solution was then exchanged for fresh medium, to allow observation of dissociation for at least 120 min.

Compound | Ki (human PD-L1) | bone uptake (sign of defluorination) [1] | excretion route [1] | target-specific tumor uptake, PC3 PD-L1 versus PC3 mock [1] | SUVmax PC3 PD-L1 tumor [1] | SUVmax PC3 mock tumor [1] | Uptake (SUVmean) Bone (spine) [1] | Uptake (SUVmean) Gall bladder [1] | Uptake (SUVmean) Heart [1] | Uptake (SUVmean) Liver [1] | Uptake (SUVmean) PC3 PD-L1 tumor [1] | Uptake (SUVmean) PC3 mock tumor [1] | Uptake (SUVmean) Small intestine [1] | transition from liver and gall bladder into the intestine [1] | radiotracer remaining intact [2] | real-time radioligand binding, bound radioactivity over time (PC3 PD-L1 cells)
Cc1c(COc2cc(OCc3cncc(S(C)(=O)=O)c3)c(CN(C)C(=O)[C@H](CS(=O)(=O)O)NC(=O)[C@H](CS(=O)(=O)O)NC(=O)CCP(=O)(O)O)cc2Cl)cccc1-c1cccc(OCc2cn(CCOCCOCCF)nn2)c1C [Compound 3, (R)−3-((5-Chloro-4-((3'-((1-(2-(2-(2-fluoroethoxy)ethoxy)ethyl)−1H-1,2,3-triazol-4-yl)methoxy)−2,2'-dimethyl-[1,1'-biphenyl]−3-yl)methoxy)−2-((5-(methylsulfonyl)pyridin-3-yl)methoxy)benzyl)(methyl)amino)−3-oxo-2-((R)−2-(3-phosphonopropanamido)−3-sulfopropanamido)propane-1-sulfonic acid] | 475 nM |  |  |  |  |  |  |  |  |  |  |  |  |  |  | 
Cc1c(COc2cc(OCc3cncc(S(C)(=O)=O)c3)c(CN(C)C(=O)[C@H](CS(=O)(=O)O)NC(=O)[C@H](CS(=O)(=O)O)NC(=O)CCP(=O)(O)O)cc2Cl)cccc1-c1cccc(OCc2cn([C@@H]3O[C@H](C[18F])[C@@H](O)[C@H](O)[C@H]3O)nn2)c1C [[^18F]F-2] | 189 nM | lacked a discernible bone uptake | exclusively excreted via the hepatobiliary route | marked absence of target-specific uptake | 0.66 | 0.77 | 0.25 | 46.45 | 0.86 | 1.61 | 0.34 | 0.39 | 114.55 | 10 to 15 min | up to 99% | 
Cc1c(COc2cc(OCc3cncc(S(C)(=O)=O)c3)c(CN(C)C(=O)[C@H](CS(=O)(=O)O)NC(=O)[C@H](CS(=O)(=O)O)NC(=O)CCP(=O)(O)O)cc2Cl)cccc1-c1cccc(OCc2cn(CCOCCOCC[18F])nn2)c1C [[^18F]F-3] | 475 nM | lacked a discernible bone uptake | exclusively excreted via the hepatobiliary route | marked absence of target-specific uptake | 0.30 | 0.34 | 0.13 | 150.54 | 0.20 | 0.70 | 0.17 | 0.17 | 105.54 | 10 to 15 min | up to 99% | almost no binding takes place and no
Cc1c(COc2cc(OCc3cncc(S(C)(=O)=O)c3)c(CN(C)C(=O)[C@H](CS(=O)(=O)O)NC(=O)[C@H](CS(=O)(=O)O)NC(=O)CCP(=O)(O)O)cc2Cl)cccc1-c1cccc(OCc2cn([C@@H]3O[C@H](CF)[C@@H](O)[C@H](O)[C@H]3O)nn2)c1C [Compound 2, (R)−3-((5-Chloro-4-((3'-((1-((2R,3R,4S,5S,6S)−6-(fluoromethyl)−3,4,5-trihydroxytetrahydro-2H-pyran-2-yl)−1H-1,2,3-triazol-4-yl)methoxy)−2,2'-dimethyl-[1,1'-biphenyl]−3-yl)methoxy)−2-((5-(methylsulfonyl)pyridin-3-yl)methoxy)benzyl)(methyl)amino)−3-oxo-2-((R)−2-(3-phosphonopropanamido)−3-sulfopropanamido)propane-1-sulfonic acid] | 189 nM |  |  |  |  |  |  |  |  |  |  |  |  |  |  | 
